The record followed here is patent US10570129B2 (Zoetis Services LLC, priority 2015, dated 2020).

A value given as a limit tells only on which side of the number the result lay.

One test relates to Haemonchus contortus L3. The test can be described thus: microbe, parasite or virus in culture. Format: cell-based. To be noted: for minimal effective concentration: Haemonchus contortus, 96 h, read-out: HcL3 Minimal Effective Concentration (MEC).
The subject of another test is D. immitis microfilariae. Put plainly: Dirofilaria immitis, microfilariae (DiMF) in vitro motility assay. In kind it is cell-based. The note with it: for minimal effective concentration: Dirofilaria immitis, 72 h, read-out: DiMF minimally effective dose (MEC); for DiMF minimally effective dose (MEC): decrease in microfilariae motility by subjective visual assessment, observed at 72 hours.

For `N#Cc1ccc(/C=C/CN2CCc3c(c4cc(F)c(Cl)cc4n3C(=O)NCc3ccnc(Cl)c3)C2)cc1F` [Example 298, (E)-7-chloro-N-((2-chloropyridin-4-yl)methyl)-2-(3-(4-cyano-3-fluoro-phenyl)allyl)-8-fluoro-1,2,3,4-tetrahydro-5H-pyrido[4,3-b]indole-5-carboxamide], the minimal effective concentration in the test with Haemonchus contortus L3 is 1.8 µM; with D. immitis microfilariae, over 100 µM.

Consider `N#Cc1ccc2c(c1)c1c(n2C(=O)NCc2ccnc(Cl)c2)CCN(C/C=C/c2ccc(F)c(F)c2F)C1` [Example 80, (E)-N-((2-chloropyridin-4-yl)methyl)-8-cyano-2-(3-(2,3,4-trifluorophenyl)allyl)-1,2,3,4-tetrahydro-5H-pyrido[4,3-b]indole-5-carboxamide], for which the results for the minimal effective concentration in the test with Haemonchus contortus L3 and in the test with D. immitis microfilariae were 0.06 µM and over 100 µM, respectively.

As for `N#Cc1ccc2c(c1)c1c(n2C(=O)NCc2ccnc(F)c2)CCN(C/C=C/c2ccc(Cl)cc2Cl)C1` [Example 101, (E)-8-cyano-2-(3-(2,4-dichlorophenyl)allyl)-N-((2-fluoropyridin-4-yl)methyl)-1,2,3,4-tetrahydro-5H-pyrido[4,3-b]indole-5-carboxamide], the minimal effective concentration with Haemonchus contortus L3 was 0.2 µM; with D. immitis microfilariae it was 24 µM.

In the case of `O=C(NCc1ccnc(Cl)c1)n1c2c(c3c(Cl)cccc31)CN(C/C=C/c1ccc(Cl)c(Cl)c1)CC2` [Example 216, (E)-9-chloro-N-((2-chloropyridin-4-yl)methyl)-2-(3-(3,4-dichlorophenyl)allyl)-1,2,3,4-tetrahydro-5H-pyrido[4,3-b]indole-5-carboxamide], the minimal effective concentration in the test with Haemonchus contortus L3 was 1 µM; in the test with D. immitis microfilariae, 18.2 µM.

`N#Cc1ccc2c(c1)c1c(n2C(=O)NCc2ccnc(Cl)c2)CCN(C/C=C/c2cc(F)ccc2Br)C1` [Example 77, (E)-2-(3-(2-bromo-5-fluorophenyl)allyl)-N-((2-chloropyridin-4-yl)methyl)-8-cyano-1,2,3,4-tetrahydro-5H-pyrido[4,3-b]indole-5-carboxamide]: the values for the minimal effective concentration in the test on Haemonchus contortus L3 and in the test with D. immitis microfilariae were 0.3 µM and over 100 µM, respectively.

In the case of `O=C(NCc1ccnc(Cl)c1)n1c2c(c3cccc(Cl)c31)CN(C/C=C/c1ccc(OC(F)(F)F)cc1)CC2` [Example 271, (E)-6-chloro-N-((2-chloropyridin-4-yl)methyl)-2-(3-(4-(trifluoromethoxy)-phenyl)allyl)-1,2,3,4-tetrahydro-5H-pyrido[4,3-b]indole-5-carboxamide], the values for the minimal effective concentration with Haemonchus contortus L3 and in the test on D. immitis microfilariae were over 100 µM and 5.7 µM, respectively.

For `N#Cc1ccc2c3c(n(C(=O)NCc4ccnc(C(F)(F)F)c4)c2c1)CCN(C/C=C/c1ccc(Cl)c(F)c1)C3` [Example 60, (E)-2-(3-(4-chloro-3-fluorophenyl)allyl)-7-cyano-N-((2-(trifluoromethyl)pyridin-4-yl)methyl)-1,2,3,4-tetrahydro-5H-pyrido[4,3-b]indole-5-carboxamide], the minimal effective concentration with Haemonchus contortus L3 was found to be 4.4 µM; in the test on D. immitis microfilariae, 13.5 µM.

“(E)-9-chloro-2-(3-(4-chlorophenyl)allyl)-N-((2-chloropyridin-4-yl)methyl)-8-fluoro-1,2,3,4-tetrahydro-5H-pyrido[4,3-b]indole-5-carboxamide [Example 318]”: the “HcL3 Minimal Effective Concentration (MEC)” value in the test with Haemonchus contortus L3 came to 3.3 µM. For the same molecule, the “DiMF minimally effective dose (MEC)” value in the test with D. immitis microfilariae turned out to be 5.7 µM.

With “(E)-8-cyano-2-(3-(2,4-difluorophenyl)allyl)-N-((2-(trifluoromethyl)pyridin-4-yl)methyl)-1,2,3,4-tetrahydro-5H-pyrido[4,3-b]indole-5-carboxamide [Example 129]”, the “HcL3 Minimal Effective Concentration (MEC)” value in the test with Haemonchus contortus L3 was found to be 0.05 µM. Further, the “DiMF minimally effective dose (MEC)” value with D. immitis microfilariae is 3.5 µM.

For the molecule `N#Cc1ccc(/C=C/CN2CCc3c(c4cc(Br)ccc4n3C(=O)NCc3ccnc(Cl)c3)C2)cc1F` [Example 180, (E)-8-bromo-N-((2-chloropyridin-4-yl)methyl)-2-(3-(4-cyano-3-fluorophenyl)allyl)-1,2,3,4-tetrahydro-5H-pyrido[4,3-b]indole-5-carboxamide], the minimal effective concentration in the test with Haemonchus contortus L3 is 0.5 µM; with D. immitis microfilariae, over 100 µM.

For `N#Cc1cc2c(cc1OC(F)(F)F)c1c(n2C(=O)NCc2ccnc(Cl)c2)CCN(C/C=C/c2ccc(Cl)cc2)C1` [Example 502, (E)-2-(3-(4-chlorophenyl)allyl)-N-((2-chloropyridin-4-yl)methyl)-7-cyano-8-(trifluoromethoxy)-1,2,3,4-tetrahydro-5H-pyrido[4,3-b]indole-5-carboxamide], the minimal effective concentration with Haemonchus contortus L3 was 18.2 µM; in the test with D. immitis microfilariae it was over 100 µM.

In the case of “(E)-N-((2-chloropyridin-4-yl)methyl)-2-(3-(3,4-dichlorophenyl)allyl)-8-(pyrrolidin-1-yl)-1,2,3,4-tetrahydro-5H-pyrido[4,3-b]indole-5-carboxamide [Example 507]”, in the test on Haemonchus contortus L3, the “HcL3 Minimal Effective Concentration (MEC)” value stood at 10.0 µM. For the same molecule, the “DiMF minimally effective dose (MEC)” value with D. immitis microfilariae was found to be 13.5 µM.

Regarding `CS(=O)(=O)c1ccc(/C=C/CN2CCc3c(c4ccc(C(F)(F)F)cc4n3C(=O)NCc3ccnc(Cl)c3)C2)cc1` [Example 151, (E)-N-((2-chloropyridin-4-yl)methyl)-2-(3-(4-(methylsulfonyl)phenyl)allyl)-7-(trifluoromethyl)-1,2,3,4-tetrahydro-5H-pyrido[4,3-b]indole-5-carboxamide], the figures for the minimal effective concentration in the test on Haemonchus contortus L3 and with D. immitis microfilariae were over 100 µM and 13.5 µM, respectively.

Consider `CCOc1ccc2c(c1)c1c(n2C(=O)NCc2ccnc(Cl)c2)CCN(C/C=C/c2ccc(Cl)cc2)C1` [Example 513, (E)-2-(3-(4-chlorophenyl)allyl)-N-((2-chloropyridin-4-yl)methyl)-8-ethoxy-1,2,3,4-tetrahydro-5H-pyrido[4,3-b]indole-5-carboxamide], for which the minimal effective concentration was 7.6 µM in the test with Haemonchus contortus L3 and 3.3 µM with D. immitis microfilariae.

Take `N#Cc1ccc2c(c1)c1c(n2C(=O)NCc2ccnc(Cl)c2)CCN(C/C=C/c2cc(F)c(F)c(F)c2)C1` [Example 89, (E)-N-((2-chloropyridin-4-yl)methyl)-8-cyano-2-(3-(3,4,5-trifluorophenyl)allyl)-1,2,3,4-tetrahydro-5H-pyrido[4,3-b]indole-5-carboxamide]: the results for the minimal effective concentration in the test with Haemonchus contortus L3 and in the test on D. immitis microfilariae were 0.1 µM and 1 µM, respectively.

With `O=C(NCc1ccnc(F)c1)n1c2c(c3cc(Br)ccc31)CN(C/C=C/c1ccc(Cl)cc1)CC2` [Example 192, (E)-8-bromo-2-(3-(4-chlorophenyl)allyl)-N-((2-fluoropyridin-4-yl)methyl)-1,2,3,4-tetrahydro-5H-pyrido[4,3-b]indole-5-carboxamide], the figures for the minimal effective concentration with Haemonchus contortus L3 and in the test with D. immitis microfilariae were 0.7 µM and 11.5 µM, respectively.

As for `Cc1cc2c(cc1Br)c1c(n2C(=O)NCc2ccnc(Cl)c2)CCN(C/C=C/c2ccc(Cl)cc2)C1` [Example 194, (E)-8-bromo-2-(3-(4-chlorophenyl)allyl)-N-((2-chloropyridin-4-yl)methyl)-7-methyl-1,2,3,4-tetrahydro-5H-pyrido[4,3-b]indole-5-carboxamide], the figures for the minimal effective concentration in the test with Haemonchus contortus L3 and with D. immitis microfilariae were 0.4 µM and 5.7 µM, respectively.

For `N#Cc1ccc(/C=C/CN2CCc3c(c4c(C(F)(F)F)cc(F)cc4n3C(=O)NCc3ccnc(Cl)c3)C2)cc1` [Example 320, (E)-N-((2-chloropyridin-4-yl)methyl)-2-(3-(4-cyanophenyl)allyl)-7-fluoro-9-(trifluoromethyl)-1,2,3,4-tetrahydro-5H-pyrido[4,3-b]indole-5-carboxamide], the minimal effective concentration with Haemonchus contortus L3 was 3.3 µM; with D. immitis microfilariae, 18.2 µM.

As to `O=C(NCc1ccnc(F)c1)n1c2c(c3cc(F)c(Cl)cc31)CN(C/C=C/c1cc(F)cc(F)c1)CC2` [Example 316, (E)-7-chloro-2-(3-(3,5-difluorophenyl)allyl)-8-fluoro-N-((2-fluoropyridin-4-yl)methyl)-1,2,3,4-tetrahydro-5H-pyrido[4,3-b]indole-5-carboxamide], the minimal effective concentration with Haemonchus contortus L3 is over 100 µM; in the test on D. immitis microfilariae it was 5.7 µM.

On to `N#Cc1ccc2c3c(n(C(=O)NCc4ccnc(F)c4)c2c1)CCN(C/C=C/c1ccc(Cl)cc1)C3` [Example 55, (E)-2-(3-(4-chlorophenyl)allyl)-7-cyano-N-((2-fluoropyridin-4-yl)methyl)-1,2,3,4-tetrahydro-5H-pyrido[4,3-b]indole-5-carboxamide], for which the minimal effective concentration is over 100 µM in the test with Haemonchus contortus L3 and 10 µM in the test with D. immitis microfilariae.

With `N#Cc1ccc(/C=C/CN2CCc3c(c4cc(C(F)(F)F)ccc4n3C(=O)NCc3ccnc(Cl)c3)C2)cc1` [Example 331, (E)-N-((2-chloropyridin-4-yl)methyl)-2-(3-(4-cyanophenyl)allyl)-8-(trifluoromethyl)-1,2,3,4-tetrahydro-5H-pyrido[4,3-b]indole-5-carboxamide], the minimal effective concentration worked out at 0.7 µM in the test on Haemonchus contortus L3 and 24 µM in the test on D. immitis microfilariae.

`O=C(NCc1ccnc(Cl)c1)n1c2c(c3cc(Cl)ccc31)CN(C/C=C/c1ccc(Cl)cc1F)CC2` [Example 233, (E)-8-chloro-2-(3-(4-chloro-2-fluorophenyl)allyl)-N-((2-chloropyridin-4-yl)methyl)-1,2,3,4-tetrahydro-5H-pyrido[4,3-b]indole-5-carboxamide]: the minimal effective concentration in the test with Haemonchus contortus L3 was 0.01 µM; in the test with D. immitis microfilariae, 1.8 µM.

On to `N#Cc1ccc(/C=C/CN2CCc3c(c4cc(C(F)(F)F)ccc4n3C(=O)NCc3ccnc(Cl)c3)C2)cc1F` [Example 411, (E)-N-((2-chloropyridin-4-yl)methyl)-2-(3-(4-cyano-3-fluorophenyl)allyl)-8-(trifluoromethyl)-1,2,3,4-tetrahydro-5H-pyrido[4,3-b]indole-5-carboxamide], for which the minimal effective concentration stood at 0.03 µM in the test on Haemonchus contortus L3 and 1.8 µM with D. immitis microfilariae.
